Here are results for five compounds from paper PMC3390344, “Antibacterial Activity and Mechanism of a Scorpion Venom Peptide Derivative In Vitro and In Vivo” (PLoS ONE, 2012).

Converted amounts (≈) assume the structure as drawn. Where two headings read alike, the source gives them in different places.

What all share (format): cell-based
The test system of assay [1] is E. coli AB94012. Kind of assay: Growth inhibitory assay (growth curves). The note with it: at a concentration of 6.25 µg/mL; Figure 2C. As to the method: Figure 2 Gowth inhibitory activities of Kn2-7. (A) Growth curves of S. aureus AB94004 treated with Kn2-7, BmKn2 or antibiotics. (B) Growth curves of MRSA P1386 treated with Kn2-7, BmKn2 or antibiotics. (C) Growth curves of E. coli AB94012 treated with Kn2-7, BmKn2 or antibiotics.
The time growth curves of S. aureus and MRSA treated with BmKn2 or its derivatives were determined based on measurements taken at 630 nm at each time point. Different concentrations of peptide were added to the tested strains, which were cultured in 96-well plates using the same method as was used for determining the MIC.

In assay [2] the test system is E. coli AB94012. The experiment in a line: Enzyme release assay (catalase). To be noted: E. coli AB94012, 37°C; 0.9% saline negative control; Figure 4D. The protocol:
(§1) Figure 4 Secondary structure and enzyme release assay of Kn2-7. (A) and (B) Secondary structure analysis of the Kn2-7 and BmKn2 peptides. (A) Circular dichroism spectra of 0.1 mg/mL of Kn2-7 in water, 30% TFE/H2O or 70% TFE/H2O. (B) Circular dichroism spectra of 0.1 mg/mL of BmKn2 in water, 30% TFE/H2O or 70% TFE/H2O. (C) and (D) Enzyme release assay. (C) S. aureus AB94004 treated with Kn2-7 or BmKn2 was harvested, and the catalase activities of the supernatants were measured; 0.9% saline was used as the negative control, and ampicillin sodium was used as the antibiotic control. (D) E. coli AB94012 treated with Kn2-7 or BmKn2 was harvested, and the catalase activities in the supernatants were measured; 0.9% saline was used as the negative control, and kanamycin was used as the antibiotic control.
(§2) Bacterial suspensions and serial-diluted peptides were mixed at a ratio of 4∶1 in different tubes with a final volume of 2 ml. The mixtures were then incubated at 37°C with continuous shaking. At each time point, 200 µl of the treated bacterial suspension was transferred to sterilized tubes. After centrifugation, the supernatants were transferred to a sterilized 1.5-ml tube, and catalase activity was measured with a Catalase Assay Kit (Beyotime, Jiangsu, China) using the method for measuring peroxidase activity.

The subject of assay [3] is methicillin-resistant coagulase-negative Staphylococcus (MRCNS) P1369. The experiment in a line: microbe, parasite or virus in culture. To be noted: Staphylococcus. As to the method:
(§3) The MIC was determined via a microdilution assay in 96-well microtiter plates according to the broth microdilution guideline of Clinical and Laboratory Standards Institute (CLSI).

Assay [4] concerns penicillin-resistant S. aureus (PRSA) P1383. The experiment in a line: microbe, parasite or virus in culture. The protocol: (§4) Clinical isolates were obtained from the 302nd military hospital of Beijing, China, including penicillin-resistant S. aureus (PRSA) P1383, penicillin-resistant S. epidermidis (PRSE) P1389, methicillin-resistant S. aureus (MRSA) P1381, P1386 and P1374, methicillin-resistant coagulase-negative Staphylococcus (MRCNS) P1369, and penicillin-sensitive S. epidermidis (PSSE) P1111.
as §3

Assay [5] deals with methicillin-resistant S. aureus (MRSA) P1386. Kind of assay: microbe, parasite or virus in culture. The protocol:
as §4, §3

The test system of assay [6] is methicillin-resistant S. aureus (MRSA) P1374. Kind of assay: microbe, parasite or virus in culture. As to the method:
as §4, §3

The test system of assay [7] is penicillin-sensitive S. epidermidis (PSSE) P1111. Kind of assay: microbe, parasite or virus in culture. The protocol: as §4, §3
The test system of assay [8] is methicillin-resistant S. aureus (MRSA) P1381. The experiment in a line: microbe, parasite or virus in culture. As to the method: as §4, §3
Assay [9] concerns penicillin-resistant S. epidermidis (PRSE) P1389. The experiment in a line: microbe, parasite or virus in culture. The protocol: as §4, §3
A further assay has as its system S. aureus AB94004. The experiment in a line: Enzyme release assay (catalase). The note with it: S. aureus AB94004, 37°C; 0.9% saline negative control; Figure 4C. As to the method: as §1, §2
The mark [10] stands for this setting: Staphylococcus epidermidis, read-out: MIC.

As to `NC[C@H]1O[C@H](O[C@H]2[C@H](O)[C@@H](O[C@H]3O[C@H](CO)[C@@H](O)[C@H](N)[C@H]3O)[C@H](N)C[C@@H]2N)[C@H](O)[C@@H](O)[C@@H]1O` [kanamycin, reference compound], the “Growth inhibition of E. coli AB94012 (growth curve)” value with E. coli AB94012 [1] is listed as “inhibited the growth of E. coli AB94012”. Moreover, the “Catalase activity of the supernatant over time” value in the assay with E. coli AB94012 [2] was “increasing catalase activity over time”.
With `CN[C@H](CC(C)C)C(=O)N[C@H]1C(=O)N[C@@H](CC(N)=O)C(=O)N[C@H]2C(=O)N[C@H]3C(=O)N[C@H](C(=O)N[C@H](C(=O)O)c4cc(O)cc(O)c4-c4cc3ccc4O)[C@H](O)c3ccc(c(Cl)c3)Oc3cc2cc(c3O[C@@H]2O[C@H](CO)[C@@H](O)[C@H](O)[C@H]2O[C@H]2C[C@](C)(N)[C@H](O)[C@H](C)O2)Oc2ccc(cc2Cl)[C@H]1O` [Vancomycin], the MIC was 6.25 µg/mL (≈ 4.31 µM) in assay [3]; 6.25 µg/mL (≈ 4.31 µM) in assay [4] (Staphylococcus aureus); 3.13 µg/mL (≈ 2.16 µM) in [5] (Staphylococcus aureus, MRSA); 6.25 µg/mL (≈ 4.31 µM) in assay [6] (Staphylococcus aureus, MRSA); 3.13 µg/mL (≈ 2.16 µM) in assay [7] (setting [10]); 3.13 µg/mL (≈ 2.16 µM) in assay [8] (Staphylococcus aureus, MRSA). In assay [9] (Staphylococcus epidermidis), this compound registered an MIC of 6.25 µg/mL (≈ 4.31 µM).
As for Penicillin, the MIC stood at 10000 µg/mL in assay [4] (P1383, penicillin resistant (PRSA) clinical isolate, repeated at least three times); 10000 µg/mL in assay [5] (P1386, methicillin resistant (MRSA) clinical isolate, repeated at least three times); 5000 µg/mL in assay [6] (P1374, methicillin resistant (MRSA) clinical isolate, repeated at least three times); 25 µg/mL in assay [7] (P1111, penicillin sensitive (PSSE) clinical isolate, repeated at least three times); 5000 µg/mL in assay [8] (P1381, methicillin resistant (MRSA) clinical isolate, repeated at least three times); 10000 µg/mL in assay [9] (P1389, penicillin resistant (PRSE) clinical isolate, repeated at least three times).
On to `CO/N=C(\C(=O)N[C@@H]1C(=O)N2C(C(=O)O)=C(COC(C)=O)CS[C@H]12)c1csc(N)n1` [Cefotaxime], for which the MIC in [3] turned out to be 400 µg/mL (≈ 878 µM); in assay [4] (Staphylococcus aureus) it was 6.25 µg/mL (≈ 13.7 µM); in assay [5] (Staphylococcus aureus, MRSA), 100 µg/mL (≈ 220 µM); in assay [6] (Staphylococcus aureus, MRSA) it was 400 µg/mL (≈ 878 µM); in assay [7] (setting [10]) it was 6.25 µg/mL (≈ 13.7 µM); in [8] (Staphylococcus aureus, MRSA), 400 µg/mL (≈ 878 µM). In addition, the MIC in [9] (Staphylococcus epidermidis) came out at 3.13 µg/mL (≈ 6.87 µM).
On to `CC1(C)S[C@@H]2[C@H](NC(=O)[C@H](N)c3ccccc3)C(=O)N2[C@H]1C(=O)O` [ampicillin, reference compound], for which, in the assay on S. aureus AB94004, the “Catalase activity of the supernatant over time” value is recorded as “increasing catalase activity over time”.
